Test results published in ChEMBL document CHEMBL5154776, “Discovery of Potent and Orally Bioavailable Platelet-Derived Growth Factor Receptor (PDGFR) Inhibitors for the Treatment of Osteosarcoma” (J Med Chem, 2022).

Experiments:
[1] = target: T1, Platelet-derived growth factor receptor beta (Homo sapiens, UniProt P09619); test: Inhibition of PDGFRbeta (unknown origin) at 100 nM by caliper mobility shift assay relative to control
[2] = target: T1, Platelet-derived growth factor receptor beta; test: Inhibition of PDGFRbeta (unknown origin) by caliper mobility shift assay
SAOS-2 = test: Antiproliferative activity against human SAOS-2 cells assessed as reduction in cell viability incubated for 48 hrs by MTT assay; conditions: SAOS-2, 48 h
CYP2C9 = test: Inhibition of CYP2C9 in rat liver microsomes at 100 uM using diclofenac as substrate preincubated for 5 min followed by NADPH addition and measured after 40 mins by UHPLC-MS/MS analysis; format: ADME, Microsome; conditions: probe diclofenac, time 45 min
U2OS = test: Antiproliferative activity against human U2OS cells assessed as reduction in cell viability incubated for 48 hrs by MTT assay
MG-63 = test: Antiproliferative activity against human MG-63 cells assessed as reduction in cell viability incubated for 48 hrs by MTT assay; conditions: MG-63, 48 h
HOS-TE85 = test: Antiproliferative activity against human MNNG/HOS cells assessed as reduction in cell viability incubated for 48 hrs by MTT assay; conditions: HOS-TE85, 48 h
CYP2C19 = test: Inhibition of CYP2C19 in rat liver microsomes at 100 uM using voriconazole as substrate preincubated for 5 min followed by NADPH addition and measured after 40 mins by UHPLC-MS/MS analysis; format: ADME, Microsome; conditions: probe voriconazole, time 45 min
[3] = target: T2, Platelet-derived growth factor receptor alpha (Homo sapiens, UniProt P16234); test: Inhibition of PDGFRalpha (unknown origin) by caliper mobility shift assay
T2 sequence (P16234 whole entry): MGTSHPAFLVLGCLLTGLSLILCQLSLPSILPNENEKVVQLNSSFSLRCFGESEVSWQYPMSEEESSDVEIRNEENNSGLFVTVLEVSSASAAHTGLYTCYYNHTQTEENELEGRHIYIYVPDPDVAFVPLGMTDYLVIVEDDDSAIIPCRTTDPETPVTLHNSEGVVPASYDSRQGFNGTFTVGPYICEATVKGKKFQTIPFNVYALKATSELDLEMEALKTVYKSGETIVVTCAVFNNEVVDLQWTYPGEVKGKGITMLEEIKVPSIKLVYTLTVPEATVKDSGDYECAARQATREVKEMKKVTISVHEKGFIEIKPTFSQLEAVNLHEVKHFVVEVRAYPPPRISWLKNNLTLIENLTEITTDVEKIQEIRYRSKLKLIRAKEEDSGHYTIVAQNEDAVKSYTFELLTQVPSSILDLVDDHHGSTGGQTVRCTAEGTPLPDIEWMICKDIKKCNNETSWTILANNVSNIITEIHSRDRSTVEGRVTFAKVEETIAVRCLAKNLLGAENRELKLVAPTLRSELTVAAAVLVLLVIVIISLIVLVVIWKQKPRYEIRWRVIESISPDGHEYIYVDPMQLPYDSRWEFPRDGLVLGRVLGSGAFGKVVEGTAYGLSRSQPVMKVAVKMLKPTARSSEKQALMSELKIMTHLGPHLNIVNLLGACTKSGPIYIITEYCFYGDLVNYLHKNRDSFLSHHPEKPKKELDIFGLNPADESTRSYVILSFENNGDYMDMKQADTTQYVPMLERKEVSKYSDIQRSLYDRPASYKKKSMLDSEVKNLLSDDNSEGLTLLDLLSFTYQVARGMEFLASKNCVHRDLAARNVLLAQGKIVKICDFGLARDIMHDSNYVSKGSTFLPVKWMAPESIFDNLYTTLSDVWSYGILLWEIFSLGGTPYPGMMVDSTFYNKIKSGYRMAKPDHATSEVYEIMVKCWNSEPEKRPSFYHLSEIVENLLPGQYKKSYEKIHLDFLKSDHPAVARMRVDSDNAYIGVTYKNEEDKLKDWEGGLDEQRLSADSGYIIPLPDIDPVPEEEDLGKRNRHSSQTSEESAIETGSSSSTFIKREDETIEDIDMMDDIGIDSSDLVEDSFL

[4] = Hepatotoxicity in C57/BL6 mouse assessed as effect on aspartate aminotransferase level at 40 to 80 mg/kg/day, po dosed for 10 days by liver function test; format: toxicity, organism-based; conditions: in vivo, 240 h, dose 40-80 mg/kg/day, time 10 day
[5] = Toxicity in BALB/c nude mouse xenograted with human MNNG/HOS cells assessed as effect on spleen weight at 15 to 30 mg/kg/day, po dosed for 14 days; format: organism-based, HOS-TE85; conditions: in vivo, 336 h, dose 15-30 mg/kg/day, time 14 day
[6] = Toxicity in BALB/c nude mouse xenograted with human MNNG/HOS cells assessed as effect on heart weight at 15 to 30 mg/kg/day, po dosed for 14 days; format: organism-based, HOS-TE85; conditions: in vivo, 336 h, dose 15-30 mg/kg/day, time 14 day
[7] = Hepatotoxicity in C57/BL6 mouse assessed as effect on alanine aminotransferase level at 40 to 80 mg/kg/day, po dosed for 10 days by liver function test; format: toxicity, organism-based; conditions: in vivo, 240 h, dose 40-80 mg/kg/day, time 10 day
[8] = Toxicity in BALB/c nude mouse xenograted with human MNNG/HOS cells assessed as effect on liver weight at 15 to 30 mg/kg/day, po dosed for 14 days; format: organism-based, HOS-TE85; conditions: in vivo, 336 h, dose 15-30 mg/kg/day, time 14 day
[9] = Toxicity in BALB/c nude mouse xenograted with human MNNG/HOS cells assessed as morphological change in liver at 15 to 30 mg/kg/day, po for 14 days by hematoxylin and eosin staining method; format: organism-based, HOS-TE85; conditions: in vivo, 336 h, dose 15-30 mg/kg/day, time 14 day
[10] = Toxicity in C57/BL6 mouse assessed as tolerability at 40 to 80 mg/kg/day, po dosed for 10 days; format: organism-based; conditions: in vivo, 240 h, dose 40-80 mg/kg/day, time 10 day
[11] = Half life in Sprague-Dawley rat at 20 mg/kg, po measured at 0.033 to 48 hrs by UHPLC-MS/MS analysis; format: ADME, organism-based; conditions: in vivo, time 0.033-48 hrs
[12] = Toxicity in C57/BL6 mouse assessed as change in heart weight at 40 to 80 mg/kg/day, po dosed for 10 days; format: organism-based; conditions: in vivo, 240 h, dose 40-80 mg/kg/day, time 10 day
[13] = Cmax in Sprague-Dawley rat at 4 mg/kg, ip measured at 0.08 to 8 hrs by UHPLC-MS/MS analysis; format: ADME, organism-based; parameters: time lower 0.08 hrs, dose 4 mg/kg, time upper 8 hrs, route ip; conditions: in vivo
[14] = Toxicity in C57/BL6 mouse assessed as change in liver weight at 40 to 80 mg/kg/day, po dosed for 10 days; format: organism-based; conditions: in vivo, 240 h, dose 40-80 mg/kg/day, time 10 day
[15] = Toxicity in C57/BL6 mouse assessed as histopathological change in liver at 40 to 80 mg/kg/day, po dosed for 10 days by Hematoxylin and eosin based staining analysis; format: organism-based; conditions: in vivo, 240 h, dose 40-80 mg/kg/day, time 10 day
[16] = Toxicity in BALB/c nude mouse xenograted with human MNNG/HOS cells assessed as effect on kidney weight at 15 to 30 mg/kg/day, po dosed for 14 days; format: organism-based, HOS-TE85; conditions: in vivo, 336 h, dose 15-30 mg/kg/day, time 14 day
[17] = Toxicity in C57/BL6 mouse assessed as change in kidney weight at 40 to 80 mg/kg/day, po dosed for 10 days; format: organism-based; conditions: in vivo, 240 h, dose 40-80 mg/kg/day, time 10 day
[18] = Cmax in Sprague-Dawley rat at 20 mg/kg, po measured at 0.033 to 48 hrs by UHPLC-MS/MS analysis; format: ADME, organism-based; parameters: dose 20 mg/kg, time upper 48 hrs, time lower 0.033 hrs, route po; conditions: in vivo
[19] = Toxicity in BALB/c nude mouse xenograted with human MNNG/HOS cells assessed as morphological change in kidney at 15 to 30 mg/kg/day, po for 14 days by hematoxylin and eosin staining method; format: organism-based, HOS-TE85; conditions: in vivo, 336 h, dose 15-30 mg/kg/day, time 14 day
[20] = Toxicity in C57/BL6 mouse assessed as change in lung weight at 40 to 80 mg/kg/day, po dosed for 10 days; format: organism-based; conditions: in vivo, 240 h, dose 40-80 mg/kg/day, time 10 day
[21] = Toxicity in BALB/c nude mouse xenograted with human MNNG/HOS cells assessed as effect on lung weight at 15 to 30 mg/kg/day, po dosed for 14 days; format: organism-based, HOS-TE85; conditions: in vivo, 336 h, dose 15-30 mg/kg/day, time 14 day
[22] = AUC(0 to infinity) in Sprague-Dawley rat at 20 mg/kg, po measured at 0.033 to 48 hrs by UHPLC-MS/MS analysis; format: ADME, organism-based; parameters: dose 20 mg/kg, time 0.033-48 hrs, route po; conditions: in vivo
[23] = Nephrotoxicity in C57/BL6 mouse assessed as effect on creatinine level at 40 to 80 mg/kg/day, po dosed for 10 days by kidney function test; format: toxicity, organism-based; conditions: in vivo, 240 h, dose 40-80 mg/kg/day, time 10 day
[24] = AUC(0 to infinity) in Sprague-Dawley rat at 4 mg/kg, ip measured at 0.08 to 8 hrs by UHPLC-MS/MS analysis; format: ADME, organism-based; parameters: dose 4 mg/kg, time 0.08-8 hrs, route ip; conditions: in vivo
[25] = Toxicity in C57/BL6 mouse assessed as change in body weight at 40 to 80 mg/kg/day, po dosed for 10 days; format: organism-based; conditions: in vivo, 240 h, dose 40-80 mg/kg/day, time 10 day
[26] = Toxicity in BALB/c nude mouse xenograted with human MNNG/HOS cells assessed as effect on body weight at 15 to 30 mg/kg/day, po dosed for 14 days; format: organism-based, HOS-TE85; conditions: in vivo, 336 h, dose 15-30 mg/kg/day, time 14 day
[27] = Toxicity in C57/BL6 mouse assessed as change in spleen weight at 40 to 80 mg/kg/day, po dosed for 10 days; format: organism-based; conditions: in vivo, 240 h, dose 40-80 mg/kg/day, time 10 day
[28] = Oral bioavailability in Sprague-Dawley rat at 20 mg/kg measured at 0.033 to 48 hrs by UHPLC-MS/MS analysis; format: ADME, organism-based; conditions: in vivo, time 0.033-48 hrs
[29] = Toxicity in C57/BL6 mouse assessed as histopathological change in kidney at 40 to 80 mg/kg/day, po dosed for 10 days by Hematoxylin and eosin based staining analysis; format: organism-based; conditions: in vivo, 240 h, dose 40-80 mg/kg/day, time 10 day
[30] = Half life in Sprague-Dawley rat at 4 mg/kg, ip measured at 0.08 to 8 hrs by UHPLC-MS/MS analysis; format: ADME, organism-based; conditions: in vivo, time 0.08-8 hrs
[31] = Toxicity in BALB/c nude mouse xenograted with human MNNG/HOS cells assessed as kidney lesion at 30 mg/kg/day, po for 14 days by hematoxylin and eosin staining method; format: organism-based, HOS-TE85; conditions: in vivo, 336 h, time 14 day
[32] = target: T2, Platelet-derived growth factor receptor alpha; conditions: dose 100.0 nM
Description: Inhibition of PDGFRalpha (unknown origin) at 100 nM by caliper mobility shift assay relative to control

T1 sequence (P09619 whole entry): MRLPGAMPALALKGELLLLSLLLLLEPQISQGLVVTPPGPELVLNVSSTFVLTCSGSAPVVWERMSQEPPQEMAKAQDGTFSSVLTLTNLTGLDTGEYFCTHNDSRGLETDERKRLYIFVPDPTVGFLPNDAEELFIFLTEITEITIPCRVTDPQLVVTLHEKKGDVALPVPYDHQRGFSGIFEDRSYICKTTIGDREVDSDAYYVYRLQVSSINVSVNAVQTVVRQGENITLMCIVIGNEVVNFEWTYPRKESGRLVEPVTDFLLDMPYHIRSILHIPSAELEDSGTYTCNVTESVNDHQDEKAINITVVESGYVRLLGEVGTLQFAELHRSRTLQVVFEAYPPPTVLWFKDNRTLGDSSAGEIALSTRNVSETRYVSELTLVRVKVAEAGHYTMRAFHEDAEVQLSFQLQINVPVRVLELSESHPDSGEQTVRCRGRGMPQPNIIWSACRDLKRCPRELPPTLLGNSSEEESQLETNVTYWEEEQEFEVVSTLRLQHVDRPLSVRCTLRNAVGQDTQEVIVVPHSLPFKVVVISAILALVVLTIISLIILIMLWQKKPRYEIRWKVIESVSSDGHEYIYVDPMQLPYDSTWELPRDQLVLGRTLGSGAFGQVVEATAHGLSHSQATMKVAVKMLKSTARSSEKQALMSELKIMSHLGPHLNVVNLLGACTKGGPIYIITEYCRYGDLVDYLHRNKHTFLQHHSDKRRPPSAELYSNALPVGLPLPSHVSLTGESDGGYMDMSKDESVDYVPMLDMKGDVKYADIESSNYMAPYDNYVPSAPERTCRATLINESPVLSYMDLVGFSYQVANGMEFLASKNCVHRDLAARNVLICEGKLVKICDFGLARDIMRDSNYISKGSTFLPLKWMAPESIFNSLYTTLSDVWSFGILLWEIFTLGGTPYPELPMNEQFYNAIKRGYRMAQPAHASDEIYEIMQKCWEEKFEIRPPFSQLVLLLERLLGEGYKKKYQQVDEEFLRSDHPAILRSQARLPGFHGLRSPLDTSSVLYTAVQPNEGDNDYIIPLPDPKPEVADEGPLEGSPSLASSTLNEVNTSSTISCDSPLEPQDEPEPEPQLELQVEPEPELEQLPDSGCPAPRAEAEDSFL

Q: For `Cc1cnc(Nc2ccc(N3CCN(C)CC3)cc2)nc1Nc1cccc2[nH]ccc12`, which inhibition [1] is on record?
A: 90.3%

Q: Which IC50 [2] does the source give for `Cc1cnc(Nc2ccc(N3CCNCC3)cc2)nc1Nc1ccc2cn[nH]c2c1` here?
A: 110 nM

Q: Which inhibition [1] does the source give for `Cc1cnc(Nc2ccc(N3CCN(C)CC3)cc2)nc1Nc1ccc2nccnc2c1` here?
A: 74.1%

Q: Which results are given for `CCN1CCN(c2ccc(Nc3ncc(C)c(Nc4ccc5cn[nH]c5c4)n3)cc2OC)CC1`?
A: IC50 (SAOS-2): 370 nM; inhibition at 40 min, 100 µM (CYP2C9): 45.6%; IC50 (U2OS): 420 nM; IC50 (MG-63): 440 nM; IC50 (HOS-TE85): 1030 nM; inhibition at 40 min, 100 µM (CYP2C19): 45.6%; IC50 [2]: 0.9 nM; IC50 [3]: 2.4 nM

Q: Which inhibition [1] does the source give for `Cc1cnc(Nc2ccc(N3CCN(C)CC3)cc2)nc1Nc1ccc2c(ccn2C)c1` here?
A: 79.2%

Q: Which inhibition [1] does the source give for `Cc1cnc(Nc2ccc(N3CCN(C)CC3)cc2)nc1Nc1ccc2c(C)n[nH]c2c1` here?
A: 98%

Q: With `CCN1CCN(c2ccc(Nc3ncc(C)c(Nc4ccc5cn[nH]c5c4)n3)cc2OC)CC1.Cl` as the molecule, how does the Activity [4] read?
A: Non-Toxic

Q: What about the Activity [5] of the same molecule?
A: Non-Toxic

Q: What about the Activity [6] of the same molecule?
A: Non-Toxic

Q: What about the Activity [7] of the same molecule?
A: Non-Toxic

Q: What about the Activity [8] of the same molecule?
A: Non-Toxic

Q: And the Activity [9]?
A: Non-Toxic

Q: And the Activity [10]?
A: Non-Toxic

Q: And the half-life [11]?
A: 2.12 h

Q: And the Activity [12]?
A: Non-Toxic

Q: And the Cmax [13]?
A: 78.3 ng/mL

Q: And the Activity [14]?
A: Non-Toxic

Q: And the Activity [15]?
A: Non-Toxic

Q: And the Activity [16]?
A: Non-Toxic

Q: And the Activity [17]?
A: Non-Toxic

Q: What about the Cmax [18] of the same molecule?
A: 75.2 ng/mL

Q: And the Activity [19]?
A: Non-Toxic

Q: What about the Activity [20] of the same molecule?
A: Non-Toxic

Q: What about the Activity [21] of the same molecule?
A: Non-Toxic

Q: What about the AUC(0-inf) [22] of the same molecule?
A: 665 ng·h/mL

Q: What about the Activity [23] of the same molecule?
A: Non-Toxic

Q: And the AUC(0-inf) [24]?
A: 211 ng·h/mL

Q: And the Activity [25]?
A: Non-Toxic

Q: What about the Activity [26] of the same molecule?
A: Non-Toxic

Q: What about the Activity [27] of the same molecule?
A: Non-Toxic

Q: And the bioavailability [28]?
A: 62.9%

Q: What about the Activity [29] of the same molecule?
A: Non-Toxic

Q: And the half-life [30]?
A: 2.86 h

Q: For `Cc1ccc(NC(=O)c2ccc(CN3CCN(C)CC3)cc2)cc1Nc1nccc(-c2cccnc2)n1` [IMATINIB], which Activity [31] is on record?
A: Toxic

Q: Which IC50 (SAOS-2) does the source give for `CCN1CCN(c2ccc(Nc3ncc(C)c(Nc4ccc5cn[nH]c5c4)n3)cc2)CC1` here?
A: 950 nM

Q: And the IC50 (U2OS)?
A: 550 nM

Q: What about the IC50 (MG-63) of the same molecule?
A: 960 nM

Q: What about the IC50 (HOS-TE85) of the same molecule?
A: 1400 nM

Q: What about the IC50 [2] of the same molecule?
A: 7.6 nM

Q: Which IC50 [2] does the source give for `Cc1cnc(Nc2ccc(C(=O)NCCN3CCOCC3)cc2)nc1Nc1ccc2cn[nH]c2c1` here?
A: 15.9 nM

Q: With `CN1CCN(c2ccc(Nc3ncc(C(F)(F)F)c(Nc4ccc5cn[nH]c5c4)n3)cc2)CC1` as the molecule, how does the inhibition [1] read?
A: 81%

Q: For `COc1cc(N2CCC(N3CCN(C)CC3)CC2)ccc1Nc1ncc(C)c(Nc2ccc3cn[nH]c3c2)n1`, which IC50 [2] is on record?
A: 55.6 nM

Q: Which inhibition [1] does the source give for `Cc1cnc(Nc2ccc(N3CCN(C)CC3)cc2)nc1Nc1ccc2c(c1)CCCC2` here?
A: 90.4%

Q: Which results are given for `CN1CCN(c2ccc(Nc3ncc(Br)c(Nc4ccc5cn[nH]c5c4)n3)cc2)CC1`?
A: inhibition [32]: 89.9%; inhibition [1]: 97.6%

Q: Which IC50 [2] does the source give for `Cc1cnc(Nc2ccc(N3CCS(=O)(=O)CC3)cc2)nc1Nc1ccc2cn[nH]c2c1` here?
A: 40.9 nM

Q: For `Cc1cnc(Nc2ccc(N3CCN(C)CC3)cc2)nc1Nc1ccc2[nH]ccc2c1`, which inhibition [32] is on record?
A: 57.3%

Q: What about the inhibition [1] of the same molecule?
A: 78.6%

Q: For `Cc1cnc(Nc2ccc(N3CCC(N4CCN(C)CC4)CC3)cc2)nc1Nc1ccc2cn[nH]c2c1`, which IC50 [2] is on record?
A: 16.7 nM
